Reference: the NIST ThermoML archive (doi:10.1016/j.jct.2019.04.010)

Assay: xn = mol fraction of the nth substance listed
Settings: 100 kPa, Liquid; for viscosity: Concentric cylinders viscometry; for mass density: Vibrating tube method

CCCCn1cc[n+](C)c1.O=[N+]([O-])[O-] [1-butyl-3-methylimidazolium nitrate] + CC(C)O
Settings | mass density, 293.15 K [kg/m3] | mass density, 298.15 K [kg/m3] | mass density, 303.15 K [kg/m3] | viscosity, 293.15 K [mPa·s] | viscosity, 298.15 K [mPa·s] | viscosity, 303.15 K [mPa·s] | viscosity, 308.15 K [mPa·s]
x1 = 0.0815 | 853.9 | 849.9 | 846 | 4.18 | 3.66 | 3.29 | 2.93
x1 = 0.1596 | 906.3 | 902.5 | 898.7 | 6.88 | 5.95 | 5.22 | 4.55
x1 = 0.2405 | 951.1 | 947.4 | 943.8 | 10.99 | 9.26 | 8 | 6.55
x1 = 0.3495 | 1000.3 | 996.7 | 993.2 | 18 | 15.42 | 12.83 | 10.13
x1 = 0.4405 | 1034 | 1030.5 | 1027.2 | 26 | 22 | 17.76 | 14.06
x1 = 0.5607 | 1070.7 | 1067.4 | 1064.2 | 39.8 | 33.04 | 26.4 | 20.79
x1 = 0.6506 | 1093.8 | 1090.6 | 1087.4 | 53.28 | 42.9 | 34.49 | 27.05
x1 = 0.7413 | 1114.1 | 1110.9 | 1107.9 | 69.94 | 55.5 | 45.29 | 36.2
x1 = 0.8515 | 1135 | 1131.9 | 1129 | 105.6 | 81.6 | 63.3 | 50.5
x1 = 0.9396 | 1149.7 | 1146.6 | 1143.6 | 157.7 | 122.4 | 90.3 | 72.4
x1 = 1 | 1158.3 | 1155.2 | 1152.3 | 223.54 | 168.97 | 125.36 | 96.74
